From patent US12077503B2, “Substituted cyclic amides and their use as herbicides” (FMC CORPORATION, priority 2015, dated 2024)

Tests used:
Type in all cases: in vivo
[1] = tested on: ivy-leaved morning glory (Ipomoea hederacea); assay: Test G Pre-Emergence Protocol; settings: Ipomoea, pre-emergence, 312 h, evaluated after 13 days; for pest or weed control at 15.625 g/ha: 15.625 g ai/ha; for pest or weed control at 15.625 g/ha / pest or weed control at 250 g/ha: read-out: Morningglory, Ivy-leaved damage rating (100=total damage to plant; 0=no damage to plant); for pest or weed control at 62.5 g/ha: 62.5 g ai/ha, 100=total damage to plant, 0=no damage to plant, read-out: Morningglory, Ivy-leaved damage rating; for pest or weed control at 250 g/ha: 250 g ai/ha
How it was run: (§1)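 Pre-emergence spray, 15.625/62.5/250 g/ha, vehicle acetone:water 50:50 + 0.5% Tween 20, applied 1 d after sowing. Glasshouse 24/16° C, 14 h light, 65% RH, watered twice daily. Visual damage rating at 13 d, 0–100 scale.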

corn (Zea mays) [2] = assay: Test G Pre-Emergence Protocol; settings: Zea mays, pre-emergence, 312 h, evaluated after 13 days; for plant injury at 15.625 g/ha: 15.625 g ai/ha; for plant injury at 15.625 g/ha / plant injury at 250 g/ha: read-out: Corn damage rating (100=total damage to plant; 0=no damage to plant); for plant injury at 62.5 g/ha: 62.5 g ai/ha, 100=total damage to plant, 0=no damage to plant, read-out: Corn damage rating; for plant injury at 250 g/ha: 250 g ai/ha
How it was run: as §1

[3] = tested on: giant foxtail (Setaria faberi); assay: Test G Pre-Emergence Protocol; settings: Setaria faberi, pre-emergence, 312 h, evaluated after 13 days; for pest or weed control at 15.625 g/ha: 15.625 g ai/ha; for pest or weed control at 15.625 g/ha / pest or weed control at 250 g/ha: read-out: Foxtail, Giant damage rating (100=total damage to plant; 0=no damage to plant); for pest or weed control at 62.5 g/ha: 62.5 g ai/ha, 100=total damage to plant, 0=no damage to plant, read-out: Foxtail, Giant damage rating; for pest or weed control at 250 g/ha: 250 g ai/ha
How it was run: as §1

[4] = tested on: barnyardgrass (Echinochloa crus-galli); assay: Test G Pre-Emergence Protocol; settings: Echinochloa crus-galli, pre-emergence, 312 h, evaluated after 13 days; for pest or weed control at 15.625 g/ha: 15.625 g ai/ha; for pest or weed control at 15.625 g/ha / pest or weed control at 250 g/ha: read-out: Barnyardgrass damage rating (100=total damage to plant; 0=no damage to plant); for pest or weed control at 62.5 g/ha: 62.5 g ai/ha, 100=total damage to plant, 0=no damage to plant, read-out: Barnyardgrass damage rating; for pest or weed control at 250 g/ha: 250 g ai/ha
How it was run: as §1

[5] = tested on: velvetleaf (Abutilon theophrasti); assay: Test G Pre-Emergence Protocol; settings: Abutilon theophrasti, pre-emergence, 312 h, evaluated after 13 days; for pest or weed control at 15.625 g/ha: 15.625 g ai/ha; for pest or weed control at 15.625 g/ha / pest or weed control at 250 g/ha: read-out: Velvetleaf damage rating (100=total damage to plant; 0=no damage to plant); for pest or weed control at 62.5 g/ha: 62.5 g ai/ha, 100=total damage to plant, 0=no damage to plant, read-out: Velvetleaf damage rating; for pest or weed control at 250 g/ha: 250 g ai/ha
How it was run: as §1

[6] = tested on: redroot pigweed (Amaranthus retroflexus); assay: Test G Pre-Emergence Protocol; settings: Amaranthus retroflexus, pre-emergence, 312 h, evaluated after 13 days; for pest or weed control at 15.625 g/ha: 15.625 g ai/ha; for pest or weed control at 15.625 g/ha / pest or weed control at 250 g/ha: read-out: Pigweed, Redroot damage rating (100=total damage to plant; 0=no damage to plant); for pest or weed control at 62.5 g/ha: 62.5 g ai/ha, 100=total damage to plant, 0=no damage to plant, read-out: Pigweed, Redroot damage rating; for pest or weed control at 250 g/ha: 250 g ai/ha
How it was run: as §1

[7] = tested on: ivy-leaved morning glory (Ipomoea hederacea); assay: Test G Post-Emergence Protocol; settings: Ipomoea, post-emergence, 312 h, read-out: Morningglory, Ivy-leaved damage rating; for pest or weed control at 15.625 g/ha: 15.625 g ai/ha, evaluated after 13 days (100=total damage to plant; 0=no damage to plant); for pest or weed control at 62.5 g/ha: 62.5 g ai/ha; for pest or weed control at 62.5 g/ha / pest or weed control at 250 g/ha: evaluated after 13 days, 100=total damage to plant, 0=no damage to plant; for pest or weed control at 250 g/ha: 250 g ai/ha
How it was run: (§2)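 Sow in soil; grow 8 d (24/16 °C, 14 h light, 65% humidity); spray 15.625/62.5/250 g/ha in acetone:water 50:50 + 0.5% Tween 20; grow on, water twice daily; score damage 0–100 at 13 d.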

corn (Zea mays) [8] = assay: Test G Post-Emergence Protocol; settings: Zea mays, post-emergence, 312 h, read-out: Corn damage rating; for plant injury at 15.625 g/ha: 15.625 g ai/ha, evaluated after 13 days (100=total damage to plant; 0=no damage to plant); for plant injury at 62.5 g/ha: 62.5 g ai/ha; for plant injury at 62.5 g/ha / plant injury at 250 g/ha: evaluated after 13 days, 100=total damage to plant, 0=no damage to plant; for plant injury at 250 g/ha: 250 g ai/ha
How it was run: as §2

[9] = tested on: giant foxtail (Setaria faberi); assay: Test G Post-Emergence Protocol; settings: Setaria faberi, post-emergence, 312 h, read-out: Foxtail, Giant damage rating; for pest or weed control at 15.625 g/ha: 15.625 g ai/ha, evaluated after 13 days (100=total damage to plant; 0=no damage to plant); for pest or weed control at 62.5 g/ha: 62.5 g ai/ha; for pest or weed control at 62.5 g/ha / pest or weed control at 250 g/ha: evaluated after 13 days, 100=total damage to plant, 0=no damage to plant; for pest or weed control at 250 g/ha: 250 g ai/ha
How it was run: as §2

[10] = tested on: barnyardgrass (Echinochloa crus-galli); assay: Test G Post-Emergence Protocol; settings: Echinochloa crus-galli, post-emergence, 312 h, read-out: Barnyardgrass damage rating; for pest or weed control at 15.625 g/ha: 15.625 g ai/ha, evaluated after 13 days (100=total damage to plant; 0=no damage to plant); for pest or weed control at 62.5 g/ha: 62.5 g ai/ha; for pest or weed control at 62.5 g/ha / pest or weed control at 250 g/ha: evaluated after 13 days, 100=total damage to plant, 0=no damage to plant; for pest or weed control at 250 g/ha: 250 g ai/ha
How it was run: as §2

[11] = tested on: velvetleaf (Abutilon theophrasti); assay: Test G Post-Emergence Protocol; settings: Abutilon theophrasti, post-emergence, 312 h, read-out: Velvetleaf damage rating; for pest or weed control at 15.625 g/ha: 15.625 g ai/ha, evaluated after 13 days (100=total damage to plant; 0=no damage to plant); for pest or weed control at 62.5 g/ha: 62.5 g ai/ha; for pest or weed control at 62.5 g/ha / pest or weed control at 250 g/ha: evaluated after 13 days, 100=total damage to plant, 0=no damage to plant; for pest or weed control at 250 g/ha: 250 g ai/ha
How it was run: as §2

[12] = tested on: redroot pigweed (Amaranthus retroflexus); assay: Test G Post-Emergence Protocol; settings: Amaranthus retroflexus, post-emergence, 312 h, read-out: Pigweed, Redroot damage rating; for pest or weed control at 15.625 g/ha: 15.625 g ai/ha, evaluated after 13 days (100=total damage to plant; 0=no damage to plant); for pest or weed control at 62.5 g/ha: 62.5 g ai/ha; for pest or weed control at 62.5 g/ha / pest or weed control at 250 g/ha: evaluated after 13 days, 100=total damage to plant, 0=no damage to plant; for pest or weed control at 250 g/ha: 250 g ai/ha
How it was run: as §2

Compound | pest or weed control at 15.625 g/ha [1] | pest or weed control at 62.5 g/ha [1] | pest or weed control at 250 g/ha [1] | plant injury at 15.625 g/ha (corn (Zea mays) [2]) | plant injury at 62.5 g/ha (corn (Zea mays) [2]) | plant injury at 250 g/ha (corn (Zea mays) [2]) | pest or weed control at 15.625 g/ha [3] | pest or weed control at 62.5 g/ha [3] | pest or weed control at 250 g/ha [3] | pest or weed control at 15.625 g/ha [4] | pest or weed control at 62.5 g/ha [4] | pest or weed control at 250 g/ha [4] | pest or weed control at 15.625 g/ha [5] | pest or weed control at 62.5 g/ha [5] | pest or weed control at 250 g/ha [5] | pest or weed control at 15.625 g/ha [6] | pest or weed control at 62.5 g/ha [6] | pest or weed control at 250 g/ha [6] | pest or weed control at 15.625 g/ha [7] | pest or weed control at 62.5 g/ha [7] | further results
CN1C[C@H](c2cccc(C(F)(F)F)c2)[C@@H](C(=O)Nc2cccnc2F)C1=O (racemic) [Compound 1809] | 10% | 70% | 80% | 60% | 80% | 90% | 90% | 90% | 90% | 90% | 80% | 90% | 0% | 0% | 50% | 0% | 0% | 60% | 20% | 70% | pest or weed control at 250 g/ha [7]: 70%; plant injury at 15.625 g/ha (corn (Zea mays) [8]): 80%; plant injury at 62.5 g/ha (corn (Zea mays) [8]): 80%; plant injury at 250 g/ha (corn (Zea mays) [8]): 80%; pest or weed control at 15.625 g/ha [9]: 80%; pest or weed control at 62.5 g/ha [9]: 80%; pest or weed control at 250 g/ha [9]: 80%; pest or weed control at 15.625 g/ha [10]: 80%; pest or weed control at 62.5 g/ha [10]: 80%; pest or weed control at 250 g/ha [10]: 80%; pest or weed control at 15.625 g/ha [11]: 0%; pest or weed control at 62.5 g/ha [11]: 0%; pest or weed control at 250 g/ha [11]: 40%; pest or weed control at 15.625 g/ha [12]: 20%; pest or weed control at 62.5 g/ha [12]: 20%; pest or weed control at 250 g/ha [12]: 50%
CN1C[C@H](c2ccc(Cl)cc2)[C@@H](C(=O)Nc2cnccc2C(F)(F)F)C1=O [Compound 1812] | 0% | 0% | 40% | 0% | 0% | 40% | 90% | 90% | 90% | 0% | 0% | 70% | 0% | 40% | 80% | 0% | 20% | 70% | 0% | 50% | pest or weed control at 250 g/ha [7]: 70%; plant injury at 15.625 g/ha (corn (Zea mays) [8]): 0%; plant injury at 62.5 g/ha (corn (Zea mays) [8]): 0%; plant injury at 250 g/ha (corn (Zea mays) [8]): 50%; pest or weed control at 15.625 g/ha [9]: 0%; pest or weed control at 62.5 g/ha [9]: 80%; pest or weed control at 250 g/ha [9]: 80%; pest or weed control at 15.625 g/ha [10]: 0%; pest or weed control at 62.5 g/ha [10]: 0%; pest or weed control at 250 g/ha [10]: 70%; pest or weed control at 15.625 g/ha [11]: 0%; pest or weed control at 62.5 g/ha [11]: 10%; pest or weed control at 250 g/ha [11]: 60%; pest or weed control at 15.625 g/ha [12]: 0%; pest or weed control at 62.5 g/ha [12]: 20%; pest or weed control at 250 g/ha [12]: 50%
